According to patent US20250262140A1, “Compositions and Method of Use for Hair Straightening and Shaping” (Olaplex, Inc., priority 2020, published 2025):

How the values were obtained:
[1] = Peptide stability to shampoo washes, fluorescence of dye-labeled peptide on hair (Example 9); format: binding; settings: Alexa Fluor 647 labeled peptide 1 mg/mL; virgin (FIG. 9a) and bleached (FIG. 9b) hair
Method: To separate solutions of 500 μL of DI water was added 1 mg of one of the peptides corresponding to SEQ ID NOs. 1 and 2-17. Then, a solution of 84 mg of sodium bicarbonate in 1 mL of DI water was prepared, and 12 μL of this solution was added to each peptide solution. Immediately prior to conjugation, 5 mg of Alexa Fluor 647 NHS ester (Thermo Fisher Scientific) dye molecule was dissolved in 500 μL of DMSO, and 15 μL of this solution was added to each peptide solution. After the dye was added, the solution was incubated at 4° C. in the dark for 16 hours. Removal of unbound dye molecules was carried out using a PD MiniTrap G-10 column (Cytiva) using DI water as the elutant. Fractions containing dye-labeled peptide were pooled and diluted to final peptide concentrations of 1 mg/mL.
Hair samples were then treated according to Example 8, except that during treatment with peptide, hair was treated with a single dye-labeled peptide corresponding to SEQ ID NOs. 1 and 2-17. For each set of conditions, three separate straightening protocols were performed.
Fluorescence images were collected on a EVOS M7000 Imaging System (Thermo Fisher Scientific) using a Cy5 filter set. Images were collected using a 0.1 second exposure time at a light intensity of 0.0023. Following fluorescence measurements, hair samples were then washed with shampoo an additional 9 times, towel dried, and fluorescently imaged again.
Image files were processed as 16-bit grayscale images using ImageJ software. […] The average and standard deviation of fluorescence intensity in the remaining regions (corresponding to hair strands containing fluorescently labeled peptides) was then directly calculated.

[2] = Hair straightening, treatment with heat only (Example 1); settings: 1 mg/mL peptide; after 10 shampoo wash/dry cycles
Method: Tresses of curly Brazilian hair were cut into ½ inch wide samples. The tresses were then washed with shampoo and allowed to air dry. The hair was straightened using a flat iron at 460° F. Once the hair was visibly straight, the hair was wrapped tightly in aluminum foil. A flat iron was applied to a section of the wrapped hair by holding the flat iron to the section for 10 seconds. This process was repeated until all sections of the hair were flat ironed.
Six individual solutions of each peptide corresponding to SEQ ID NO. 3 through SEQ ID NO 8 were dissolved in de-ionized (“DI”) water at a concentration of about 1 milligram per milliliter (“mg/mL”) and then applied to separate hair samples until the hair sample was saturated. The saturated hair was allowed to sit for 1 hour at 37° C. The hair was then blow dried under medium heat while gently pulling the hair into a straight shape. A flat iron was then applied to the hair at 400° F.
(§1) The straightened hair was washed with shampoo and allowed to air dry, and this washing/drying procedure was repeated a total of 10 times. […] There was little identifiable difference in efficacy among the six designed keratin binding peptides, although peptides corresponding to SEQ ID NO. 5 SEQ ID NO. 6, SEQ ID NO. 7 and SEQ ID NO. […] 3 and SEQ ID NO.4.

[3] = Hair straightening, treatment with lye and hydrogen peroxide (Example 2); settings: 1 mg/mL peptide; after 10 shampoo wash/dry cycles
Method: (§2) Tresses of curly Brazilian hair were cut into ½ inch wide samples. The tresses were then washed with shampoo and allowed to air dry. The hair then soaked in a solution of sodium hydroxide pH 12 for 30 minutes at room temperature. After this time, the hair was rinsed with DI water. The hair was then blow dried under medium heat while gently pulling the hair into a straight shape. A flat iron was then applied to the hair at 400° F.
Six individual solutions of each designed keratin binding peptide corresponding to SEQ ID NO. 3 through SEQ ID NO. 8 were dissolved in DI water at a concentration of 1 mg/ml and then applied to individual hair samples until the hair sample was saturated, and the hair sample was allowed to sit for 30 minutes at room temperature. The hair sample was then blow dried under medium heat while gently pulling the hair into a straight shape. A flat iron was then applied to the hair at 400° F.
L'Oreal® Oreor Creme 40 volume developer was then applied to the hair samples until the hair sample was saturated, and then allowed to sit for 30 minutes at room temperature. The hair samples were then rinsed with DI water.
as §1, with “Each straightened” for “The straightened”, “hair sample” for “hair”, “six” for “six designed keratin binding”, “NO. 5,” for “NO. 5”

[4] = Hair straightening, treatment with ammonium thioglycolate and hydrogen peroxide (Example 6); settings: 1 mg/mL peptide, 30 minutes; ammonium thioglycolate 10% v/v pH 10, hydrogen peroxide 2% v/v; after 30 shampoo wash/dry cycles; treated samples with and without peptide
Method: Tresses of curly Brazilian hair were cut into ½ inch wide samples. The tresses were then washed with shampoo and allowed to air dry. The hair then soaked in a solution of ammonium thioglycolate (10% v/v) in sodium hydroxide pH 10 for 30 minutes at room temperature. After this time, the hair was rinsed with DI water. The hair was then blow dried under medium heat while gently pulling the hair into a straight shape. A flat iron was then applied to the hair at 400° F.
(§3) In some samples, a solution of the peptide corresponding to SEQ ID NO.8 in DI water at a concentration of 1 mg/mL was then applied to hair until the hair was saturated, and the hair was allowed to sit for 30 minutes at room temperature. In these samples, the hair was then blow dried under medium heat while gently pulling the hair into a straight shape. A flat iron was then applied to the hair at 400° F.
For all hair samples, a solution of hydrogen peroxide (2% v/v) was then applied to the hair until the hair was saturated, and the hair was allowed to sit for 30 minutes at room temperature. The hair was then rinsed with DI water.
The straightened hair was washed with shampoo and allowed to air dry, and this washing/drying procedure was repeated a total of 30 times.

[5] = Hair straightening, treatment with glutathione reductase and hydrogen peroxide (Example 4); settings: 1 mg/mL peptide, 30 minutes; glutathione reductase/glutathione/NADP relaxation, 40 volume developer fixation; after 10 shampoo wash/dry cycles; only slight waves remained
Method: Tresses of curly Brazilian hair were cut into ½ inch wide samples. The tresses were then washed with shampoo and allowed to air dry. The hair then soaked in a solution of glutathione reductase (0.01 mg/mL), glutathione (100 mg/mL), and nicotinamide adenine dinucleotide phosphate (0.083 mg/mL) in 50 mM sodium phosphate buffer pH 8 for 30 minutes at room temperature. After this time, the hair was rinsed with DI water. The hair was then blow dried under medium heat while gently pulling the hair into a straight shape. A flat iron was then applied to the hair at 400° F.
as §3, with “A solution” for “In some samples, a solution”, “of a” for “of the”, “to har” for “to hair”, “temperature. The” for “temperature. In these samples, the”
L'Oreal® Oreor Creme 40 volume developer was then applied to the hair until the hair was saturated, and the hair was allowed to sit for 30 minutes at room temperature. The hair was then rinsed with DI water.
(§4) The straightened hair was washed with shampoo and allowed to air dry, and this washing/drying procedure was repeated a total of 10 times.

[6] = Hair straightening, treatment with lye and glucose oxidase (Example 3); settings: 1 mg/mL peptide, 30 minutes; NaOH pH 12, glucose oxidase/glucose fixation; after 10 shampoo wash/dry cycles; only slight waves remained
Method: as §2
A solution of the peptide corresponding to SEQ ID. NO. 8 in DI water at a concentration of 1 mg/mL was then applied to hair sample until the hair sample was saturated, and the hair was allowed to sit for 30 minutes at room temperature. The hair was then blow dried under medium heat while gently pulling the hair into a straight shape. A flat iron was then applied to the hair at 400° F.
(§5) A solution of glucose oxidase (2 mg/mL) and glucose (18 mg/mL) in 50 mM sodium phosphate buffer pH 5.8 was then applied to the hair until the hair was saturated, and the hair was allowed to sit for 30 minutes at room temperature. The hair was then rinsed with DI water.
as §4

[7] = Hair straightening, treatment with glutathione and glucose oxidase (Example 5); settings: 1 mg/mL peptide, 30 minutes; glutathione pH 9 relaxation, glucose oxidase/glucose fixation; after 10 shampoo wash/dry cycles; only slight waves remained
Method: Tresses of curly Brazilian hair were cut into ½ inch wide samples. The tresses were then washed with shampoo and allowed to air dry. The hair then soaked in a solution of glutathione (100 mg/mL) in sodium hydroxide pH 9 for 30 minutes at room temperature. After this time, the hair was rinsed with DI water. The hair was then blow dried under medium heat while gently pulling the hair into a straight shape. A flat iron was then applied to the hair at 400° F.
as §3, with “A” for “In some samples, a”, “The” for “In these samples, the”
as §5, §4

Substance | change in fluorescence intensity between 1 and 10 shampoos (retention of peptide in hair) [1] | straightening efficiency compared among the six peptides (vs SEQ ID NO. 3 and SEQ ID NO. 4) [2] | straightening efficiency compared among the six peptides (vs SEQ ID NO. 3 and SEQ ID NO. 4) [3] | further results
SEQ ID NO. 7: cysteine-substituted peptide with Q13C; SEQ ID NO. 15 is the same without Q13C (CGCCCHLCCCFCCYKKCELFPKC) [cysteine-substituted peptide with Q13C; 15 is the same without Q13C] | no statistically significant decrease | slightly higher straightening efficiency | slightly higher straightening efficiency | 
SEQ ID NO. 5: designed keratin binding peptide with cysteine substitutions relative to SEQ ID NO: 1 (QGQCCHLQCCFSQYKKCELFPKC) |  | slightly higher straightening efficiency | slightly higher straightening efficiency | 
SEQ ID NO. 14: differs from SEQ ID NO. 6 in lacking the Q13C substitution (CGQCCHLQCCFCQYKKCELFPKC) | significant decrease |  |  | 
SEQ ID NO. 8: cysteine-substituted peptide with Q13C; SEQ ID NO. 16 is the same without Q13C (CGQVCHLQCAFSCYKKCELFPKC) [cysteine-substituted peptide with Q13C; 16 is the same without Q13C] | no statistically significant decrease | slightly higher straightening efficiency | slightly higher straightening efficiency | hair straightening compared to an untreated sample [4]: significantly straightened; hair straightening compared to untreated samples [5]: significantly straightened; hair straightening compared to untreated samples [6]: significantly straightened; hair straightening compared to untreated samples [7]: significantly straightened
SEQ ID NO. 11: Q13C substitution relative to SEQ ID NO. 1 plus 2 additional cysteine substitutions (QGQVQHLQCAFSCYKKCELFPK) | no statistically significant decrease |  |  | 
SEQ ID NO. 16: differs from SEQ ID NO. 8 in lacking the Q13C substitution (CGQVCHLQCAFSQYKKCELFPKC) | significant decrease |  |  | 
SEQ ID NO. 15: differs from SEQ ID NO. 7 in lacking Q13C; 10 cysteine substitutions, unique Q3C and/or Q8C (CGCCCHLCCCFCQYKKCELFPKC) | strong retention |  |  | 
SEQ ID NO. 6: cysteine-substituted peptide with Q13C; SEQ ID NO. 14 is the same without Q13C (CGQCCHLQCCFCCYKKCELFPKC) [cysteine-substituted peptide with Q13C; 14 is the same without Q13C] | no statistically significant decrease | slightly higher straightening efficiency | slightly higher straightening efficiency | 
SEQ ID NO. 4: Q13C substitution relative to SEQ ID NO. 1 plus 3 additional cysteine substitutions (QGQVCHLQCAFSCYKKCELFPK) | no statistically significant decrease |  |  | 
